This is an account of results in ChEMBL document CHEMBL5512667, “Discovery of Potent, Selective, and Orally Available IRE1α Inhibitors Demonstrating Comparable PD Modulation to IRE1 Knockdown in a Multiple Myeloma Model” (J Med Chem, 2024).

Converted amounts (≈) assume the structure as drawn.

Data set [1] addresses T1, Serine/threonine-protein kinase/endoribonuclease IRE1 (Homo sapiens, UniProt O75460). As to the kind of experiment: Inhibition of His-tagged IRE1alpha (G547 to L977 residues) (unknown origin) expressed in Sf9 cells preincubated with anti-His Europium labeled antibody for 1 hr prior to compound addition followed by tracer 236 addition and measured after 1 hr by TR-FRET assay. A general note: Time-resolved FRET reads energy transfer from a long-lived donor to a nearby acceptor.

The target in data set [2] is T1, Serine/threonine-protein kinase/endoribonuclease IRE1. As to the kind of experiment: Inhibition of IRE1alpha RNase activity (Q470 to L977 residues) (unknown origin) expressed in Sf9 cells using mini-XBP-1 stem-loop RNA as substrate measured every 2 mins interval for 50 mins by FRET assay.
For data set [3] the target is unchanged. As to the kind of experiment: Inhibition of IRE1alpha RNase activity (unknown origin) using XBP1 as substrate preincubated for 1 hr followed by thapsigargin stimulation for 5 hrs by One-Glo luciferase reagent based luminescence assay.
Data set [4] in a line: Apparent permeability across apical to basolateral side in MDCK cells at 10 uM incubated for 3 hrs by LC-MS/MS method. In kind it is ADME, cell-based, Canis lupus familiaris. The note with it: dog.
Data set [5] is described as follows: Kinetic solubility of compound at pH 7.4. It is filed as physicochemical. The note with it: buffer, read-out: Kinetic_solubility.
Data set [6] is described as follows: Volume of distribution at steady state in CD-1 mouse at 10 mg/kg, po or 1 mg/kg, iv measured upto 24 hrs by LC-MS/MS analysis. The note with it: in vivo. It is filed as ADME, organism-based.
Data set [7] can be described thus: Bioavailability in CD-1 mouse at 10 mg/kg, po or 1 mg/kg, iv measured upto 24 hrs by LC-MS/MS analysis. To be noted: in vivo. In kind it is ADME, organism-based.
Data set [8] can be described thus: Plasma protein binding in mouse incubated for 4 hrs by LC-MS/MS based rapid equilibrium dialysis method. In kind it is ADME, cell-free. The note with it: read-out: PPB (converted). On the technique in general: In equilibrium dialysis free small molecules cross a membrane that holds back macromolecules.
A short description of data set [9]: Half-life in CD-1 mouse at 10 mg/kg, po or 1 mg/kg, iv measured upto 24 hrs by LC-MS/MS analysis. In kind it is ADME, organism-based. To be noted: in vivo.

T1 sequence (O75460 whole entry, the tested form may be a part): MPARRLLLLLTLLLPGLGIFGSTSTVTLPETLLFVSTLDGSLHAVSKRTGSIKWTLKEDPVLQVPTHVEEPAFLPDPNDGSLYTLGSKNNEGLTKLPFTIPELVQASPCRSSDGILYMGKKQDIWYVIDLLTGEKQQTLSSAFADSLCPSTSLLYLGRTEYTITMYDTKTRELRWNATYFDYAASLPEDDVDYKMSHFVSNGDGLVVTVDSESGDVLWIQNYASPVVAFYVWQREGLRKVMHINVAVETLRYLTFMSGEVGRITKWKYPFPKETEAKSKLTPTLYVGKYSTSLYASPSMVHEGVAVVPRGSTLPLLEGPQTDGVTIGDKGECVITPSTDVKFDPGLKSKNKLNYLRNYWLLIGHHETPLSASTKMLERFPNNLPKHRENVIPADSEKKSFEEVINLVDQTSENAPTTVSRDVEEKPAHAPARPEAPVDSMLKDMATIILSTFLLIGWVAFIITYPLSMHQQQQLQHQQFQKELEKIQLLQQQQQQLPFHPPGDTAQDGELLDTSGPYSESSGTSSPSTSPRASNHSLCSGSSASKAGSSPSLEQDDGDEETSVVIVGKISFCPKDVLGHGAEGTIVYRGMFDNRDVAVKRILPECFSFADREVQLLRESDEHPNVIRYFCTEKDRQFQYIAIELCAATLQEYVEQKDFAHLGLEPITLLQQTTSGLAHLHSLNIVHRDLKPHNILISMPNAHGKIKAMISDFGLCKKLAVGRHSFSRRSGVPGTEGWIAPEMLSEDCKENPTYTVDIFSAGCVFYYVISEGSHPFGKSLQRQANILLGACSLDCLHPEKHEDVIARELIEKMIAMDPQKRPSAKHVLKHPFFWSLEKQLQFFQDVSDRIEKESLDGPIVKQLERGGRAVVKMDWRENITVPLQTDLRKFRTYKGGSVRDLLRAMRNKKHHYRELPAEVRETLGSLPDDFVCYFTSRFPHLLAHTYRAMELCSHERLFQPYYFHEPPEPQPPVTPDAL

What is called IC50 is the midpoint of a concentration-inhibition curve. Lower therefore signals higher potency. In general, Papp A→B refers to how fast a substance crosses the layer from the apical side. As to `Cc1c(Oc2ncccc2-c2ccnc(N[C@H]3CCCNC3)n2)cc(F)c(NS(=O)(=O)Cc2ccccc2)c1F`, the IC50 in [1] stood at 0.29 nM; in [2], 29 nM; in [3] it was 37 nM. Also, in [4], the Papp A→B at 3 h, 10 µM was found to be 1.1 ×10⁻⁶ cm/s.

What is called half-life is how long it takes for the measured level to halve. A lower half-life goes with fast loss. Consider `O=S(=O)(Cc1ccccc1)Nc1c(F)cc(Oc2ncccc2-c2ccnc(N[C@@H]3CNC[C@H](CF)C3)n2)c(F)c1F`, for which the solubility kinetic in data set [5] is 28 µM (≈ 16.9 µg/mL). In data set [6], this molecule showed a Vdss of 3.51 L/kg. Also, in data set [7], the bioavailability came to 36%. Besides, the IC50 in [1] was 0.26 nM; in [2] it was 5.2 nM; in data set [3] it was 32 nM. The fraction unbound at 4 h in data set [8] was 0.029. Further, the half-life in [9] is 0.75 h. Moreover, in data set [4], the Papp A→B at 3 h, 10 µM amounted to 2.6 ×10⁻⁶ cm/s.

Take `Cc1ccc2c(NS(=O)(=O)CC3CCCCC3)cccc2c1Oc1ncccc1-c1ccnc(N[C@H]2CCCNC2)n1`: the IC50 worked out at 2.1 nM in data set [1], 24 nM in [2] and 1300 nM in [3].

Regarding `Cc1cc(Oc2ncccc2-c2ccnc(N[C@H]3CCCNC3)n2)c(F)c(F)c1NS(=O)(=O)Cc1ccccc1`, the IC50 in data set [1] came out at 0.29 nM; in data set [2], 4.5 nM; in data set [3] it was 44 nM. In data set [4], the apparent permeability from apical to basolateral (Papp A→B) at 3 h, 10 µM is 2.8 ×10⁻⁶ cm/s.

Take `O=S(=O)(Cc1ccccc1)Nc1c(F)cc(Oc2ncccc2-c2ccnc(N[C@@H]3CNC[C@@H](CF)C3)n2)c(F)c1F`: the results for the 50% inhibitory concentration (IC50) in [1], in [2] and in data set [3] were 0.78 nM, 15 nM and 540 nM, respectively.

On to `O=S(=O)(Cc1ccccc1)Nc1c(F)cc(Oc2ncccc2-c2ccnc(N[C@@H]3CNC[C@H](F)C3)n2)c(F)c1F`, for which the figures for the IC50 in [1], in [2] and in data set [3] were 2 nM, 23 nM and 2700 nM, respectively.

On to `O=S(=O)(Cc1ccccc1)Nc1c(F)cc(Oc2ncccc2-c2ccnc(N[C@H]3CCCNC3)n2)c(F)c1F`, for which the IC50 in data set [1] turned out to be 3.1 nM; in data set [2], 4.5 nM; in [3] it was 47 nM. The Papp A→B at 3 h, 10 µM in [4] stood at 1.4 ×10⁻⁶ cm/s.

Regarding `CCCS(=O)(=O)Nc1cccc2c(Oc3ncccc3-c3ccnc(N[C@H]4CCCNC4)n3)c(C)ccc12`, the IC50 in data set [1] turned out to be 4.7 nM; in data set [2] it was 6.3 nM; in data set [3], 140 nM.

`Cc1ccc2c(Oc3ncccc3-c3ccnc(N[C@H]4CCCNC4)n3)c(C)ccc2c1NS(=O)(=O)CCC(F)(F)F`: the IC50 in data set [1] is 0.66 nM; in [2], 3.3 nM; in data set [3], 42 nM.

For the molecule `Cc1ccc2c(NS(=O)(=O)CCC(F)(F)F)c(F)ccc2c1Oc1ncccc1-c1ccnc(N[C@H]2CCCNC2)n1`, the IC50 in data set [1] worked out at 0.39 nM; in [2] it was 2.1 nM; in data set [3], 35 nM.

With `Cc1ccc2c(NS(=O)(=O)c3ccccc3Cl)cccc2c1Oc1ncccc1-c1ccnc(N)n1`, the IC50 in [1] is greater than 1000 nM; in data set [2], greater than 10000 nM; in data set [3] it was 32000 nM.

Take `Cc1cc(NS(=O)(=O)Cc2ccccc2)ccc1Oc1ncccc1-c1ccnc(N[C@H]2CCCNC2)n1`: the IC50 in [1] is 29 nM; in data set [2], 170 nM; in data set [3] it was 4400 nM.

As to `Cc1ccc2c(NS(=O)(=O)C3CCCCC3)cccc2c1Oc1ncccc1-c1ccnc(N[C@H]2CCCNC2)n1`, the results for the half-maximal inhibitory concentration (IC50) in data set [1], in data set [2] and in data set [3] were 2.2 nM, 17 nM and 200 nM, respectively.

Take `Cc1ccc2c(NS(=O)(=O)c3ccccc3Cl)cccc2c1Oc1ncccc1-c1ccnc(N[C@@H]2CNCC(F)(F)C2)n1`: the IC50 is 17 nM in data set [1], 250 nM in data set [2] and 2300 nM in [3].

Regarding `Cc1ccc2c(NS(=O)(=O)CCC3CC3)cccc2c1Oc1ncccc1-c1ccnc(N[C@H]2CCCNC2)n1`, the IC50 in [1] turned out to be 1.8 nM; in data set [2], 19 nM; in [3] it was 300 nM.

Consider `CC(C)(C)c1nc(-c2ccc(NC(=O)Nc3cccc(C(F)(F)F)c3)c3ccccc23)c2c(N)nccn12`, for which the IC50 turned out to be 36 nM in data set [1], 200 nM in data set [2] and 180 nM in [3].

As for `Cc1ccc2c(NS(=O)(=O)c3ccccc3Cl)cccc2c1Oc1ncccc1-c1ccnc(Nc2cn[nH]c2)n1`, the IC50 in [1] was greater than 1000 nM; in data set [2] it was greater than 10000 nM; in data set [3] it was greater than 50000 nM.

On to `O=S(=O)(Cc1ccccc1)Nc1ccc(Oc2ncccc2-c2ccnc(N[C@H]3CCCNC3)n2)c(F)c1F`, for which the IC50 is 0.98 nM in [1], 2.9 nM in data set [2] and 88 nM in [3]. In addition, the Papp A→B at 3 h, 10 µM in [4] was 2.1 ×10⁻⁶ cm/s.

Turning to `Cc1ccc2c(NS(=O)(=O)C3CCCC3)cccc2c1Oc1ncccc1-c1ccnc(N[C@H]2CCCNC2)n1`, the 50% inhibitory concentration (IC50) in data set [1] was 3.3 nM; in data set [2], 13 nM; in [3], 200 nM.

Turning to `Cc1ccc2c(NS(=O)(=O)c3ccccc3Cl)cccc2c1Oc1ncccc1-c1ccnc(NC2CCC(=O)NC2)n1` (stereo not drawn), the 50% inhibitory concentration (IC50) in data set [1] stood at 65 nM; in [2] it was 2100 nM; in data set [3], 9000 nM.

Regarding `Cc1ccc(CNC(=O)N2CCC[C@]3(CCN(Cc4ccc(Cl)c(Cl)c4)C3)C2)cc1`, the IC50 is 660 nM in data set [1], 46 nM in data set [2] and 5900 nM in [3].

Regarding `Cc1ccc2c(NS(=O)(=O)c3ccccc3Cl)cccc2c1Oc1ncccc1-c1ccnc(N[C@H]2CCCN(CC(F)(F)F)C2)n1`, the IC50 in [1] is greater than 1000 nM; in [2], greater than 10000 nM; in [3] it was 28000 nM.

For the molecule `Cc1ccc2c(NS(=O)(=O)c3ccccc3Cl)cccc2c1Oc1ncccc1-c1ccnc(N[C@@H]2CCCNC2)n1`, the IC50 was determined as 46 nM in data set [1], 420 nM in [2] and 2300 nM in [3].

Consider `Cc1ccc2c(NS(=O)(=O)Cc3ccccc3)cccc2c1Oc1ncccc1-c1ccnc(N[C@H]2CCCNC2)n1`, for which the IC50 in [1] was 0.35 nM; in data set [2] it was 17 nM; in [3], 18 nM.

In data set [1], `Cc1cc(NS(=O)(=O)c2ccccc2Cl)c2ccccc2c1Oc1ncccc1-c1ccnc(N[C@H]2CC[C@H](N)CC2)n1` displayed an IC50 of 0.85 nM.

As to `Cc1cc(NS(=O)(=O)Cc2ccccc2)c2ccccc2c1Oc1ncccc1-c1ccnc(N[C@H]2CCCNC2)n1`, the IC50 is 0.38 nM in data set [1], 5.4 nM in data set [2] and 31 nM in data set [3].

For the molecule `Cc1cc(NS(=O)(=O)Cc2ccccc2)c(F)cc1Oc1ncccc1-c1ccnc(N[C@H]2CCCNC2)n1`, the results for the IC50 in [1], in data set [2] and in data set [3] were 2.1 nM, 14 nM and 310 nM, respectively.

With `Cc1ccc2c(NS(=O)(=O)CCC(F)(F)F)cccc2c1Oc1ncccc1-c1ccnc(N[C@H]2CCCNC2)n1`, the figures for the IC50 in [1], in data set [2] and in data set [3] were 1.1 nM, 8.7 nM and 84 nM, respectively.

For `C[C@@]1(F)CNC[C@@H](Nc2nccc(-c3cccnc3Oc3cc(F)c(NS(=O)(=O)Cc4ccccc4)c(F)c3F)n2)C1`, in data set [5], the solubility kinetic was determined as 46 µM (≈ 27.7 µg/mL). This molecule registered a Vdss in [6] of 1.04 L/kg. In addition, in [7], the bioavailability is 109%. For the same molecule, the IC50 was found to be 0.59 nM in data set [1], 7.4 nM in data set [2] and 22 nM in [3]. Besides, in [8], the fraction unbound at 4 h was 0.009. The molecule further gave a half-life in [9] of 1.56 h. For the same molecule, in data set [4], the Papp A→B at 3 h, 10 µM stood at 7.3 ×10⁻⁶ cm/s.

As for `Cc1ccc2c(NS(=O)(=O)c3ccccc3Cl)cccc2c1Oc1ncccc1-c1ccnc(N[C@H]2CCCOC2)n1`, the IC50 in [1] is 42 nM; in data set [2] it was greater than 10000 nM; in [3], 26000 nM.

For `Cc1c(Oc2ncccc2-c2ccnc(N[C@H]3CCCNC3)n2)ccc(NS(=O)(=O)Cc2ccccc2)c1F`, the IC50 stood at 1.8 nM in data set [1], 24 nM in [2] and 330 nM in data set [3]. Besides, the Papp A→B at 3 h, 10 µM in data set [4] was 2 ×10⁻⁶ cm/s.
